Values of other authors in PMC8954523 (Pharmaceutics, 2022).
In brackets after ≈: the same amount, converted by molar mass.

Legend:
[1] = 298.15 K; cited from earlier work
[2] = ref 31; cited from earlier work

| Compound | aqueous solubility [1] [µM] | log DCoct/w [2] |
| --- | --- | --- |
| CNC(=O)c1ccc(N2C(=S)N(c3cnc(C#N)c(C(F)(F)F)c3)C(=O)C23CCC3)cc1F [apalutamide] | 7.78 (≈ 3.71 µg/mL) | 3.90 |
| CNC(=O)c1ccc(N2C(=S)N(c3ccc(C#N)c(C(F)(F)F)c3)C(=O)C2(C)C)cc1F [enzalutamide] | 3.92 (≈ 1.82 µg/mL) | 4.02 |
